Here are results for 25 compounds from ChEMBL document CHEMBL1137062, “Evaluation of by disubstituted acridone derivatives as telomerase inhibitors: the importance of G-quadruplex binding” (Bioorg Med Chem Lett, 2004).

One experiment relates to A2780. Kind of experiment: Concentration required to inhibit 50% of human carcinoma A2780 cell lines. In kind it is functional, cell-based.
Experiment [1] is described as follows: Concentration required to inhibit 50% of human carcinoma CH1 cell lines. In kind it is functional, cell-based.
Experiment [2] concerns the target Telomerase reverse transcriptase (Homo sapiens, UniProt O14746). Kind of experiment: Concentration required to inhibit 50% of telomerase activity.
The next experiment relates to SK-OV-3. In words: Concentration required to inhibit 50% of human carcinoma SKOV3 cell lines. Type of experiment: functional, cell-based.

Chain of Telomerase reverse transcriptase (O14746 whole entry): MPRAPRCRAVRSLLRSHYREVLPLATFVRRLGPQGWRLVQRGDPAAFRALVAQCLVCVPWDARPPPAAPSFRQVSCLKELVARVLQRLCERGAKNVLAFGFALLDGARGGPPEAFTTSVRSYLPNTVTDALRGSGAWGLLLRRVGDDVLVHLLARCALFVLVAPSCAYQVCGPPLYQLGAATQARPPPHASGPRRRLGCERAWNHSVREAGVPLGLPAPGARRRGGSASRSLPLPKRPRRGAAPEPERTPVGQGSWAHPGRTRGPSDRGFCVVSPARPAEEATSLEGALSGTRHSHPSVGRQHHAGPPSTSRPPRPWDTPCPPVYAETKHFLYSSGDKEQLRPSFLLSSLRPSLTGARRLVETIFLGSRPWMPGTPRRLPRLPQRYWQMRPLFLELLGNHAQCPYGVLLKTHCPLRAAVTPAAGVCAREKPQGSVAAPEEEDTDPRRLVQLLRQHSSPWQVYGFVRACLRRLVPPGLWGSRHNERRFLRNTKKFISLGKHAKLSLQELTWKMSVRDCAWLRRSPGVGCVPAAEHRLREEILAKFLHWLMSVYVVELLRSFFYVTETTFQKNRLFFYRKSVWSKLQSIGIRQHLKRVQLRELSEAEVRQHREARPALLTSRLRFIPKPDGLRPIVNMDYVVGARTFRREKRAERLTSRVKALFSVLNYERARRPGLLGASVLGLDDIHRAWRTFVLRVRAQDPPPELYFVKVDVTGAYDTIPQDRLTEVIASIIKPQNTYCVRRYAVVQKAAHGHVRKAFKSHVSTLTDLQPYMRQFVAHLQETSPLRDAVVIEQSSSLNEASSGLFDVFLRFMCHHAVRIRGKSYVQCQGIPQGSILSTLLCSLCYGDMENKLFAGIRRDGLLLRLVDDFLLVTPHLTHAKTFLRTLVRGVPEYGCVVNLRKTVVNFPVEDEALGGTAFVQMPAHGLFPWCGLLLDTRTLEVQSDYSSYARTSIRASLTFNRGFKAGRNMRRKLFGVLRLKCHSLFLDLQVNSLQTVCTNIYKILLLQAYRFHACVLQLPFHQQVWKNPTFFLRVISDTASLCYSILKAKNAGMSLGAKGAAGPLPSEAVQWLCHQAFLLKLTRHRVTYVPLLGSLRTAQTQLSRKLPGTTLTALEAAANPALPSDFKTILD

As usually defined, the IC50 is the concentration that gives 50% inhibition. The EC50 is the concentration needed to bring the measured effect to its halfway point. The low end stands for greater potency, the high end for weaker potency. With `O=C(CCN1CCCCC1CO)Nc1ccc2c(O)c3cc(NC(=O)CCN4CCCCC4CO)ccc3nc2c1` (centres undefined), the IC50 stood at 11.2 µM in the experiment with A2780, 25 µM in experiment [1] and 25 µM with SK-OV-3. In addition, the midpoint of the response in experiment [2], the EC50, lay at 200 nM.
As for `CC1CCCCN1CCC(=O)Nc1ccc2c(O)c3ccc(NC(=O)CCN4CCCCC4C)cc3nc2c1` (centres undefined), the results for the IC50 (in the experiment with A2780; in experiment [1]; in the experiment on SK-OV-3) were 13 µM, 11 µM and 10.5 µM, respectively. The compound also displayed an EC50 in experiment [2] of 2300 nM.
As to `CC1CCN(CCC(=O)Nc2ccc3c(O)c4ccc(NC(=O)CCN5CCC(C)CC5)cc4nc3c2)CC1`, the IC50 in the experiment with A2780 amounted to 3 µM; in experiment [1], 3 µM; in the experiment with SK-OV-3 it was 5.6 µM. The compound further displayed an EC50 in experiment [2] of 1700 nM.
On to `CCC1CCCCN1CCC(=O)Nc1ccc2c(O)c3ccc(NC(=O)CCN4CCCCC4CC)cc3nc2c1` (centres undefined), for which the IC50 was 13 µM in the experiment with A2780, 11.8 µM in experiment [1] and 12 µM with SK-OV-3. The compound also registered an EC50 in experiment [2] of 2300 nM.
The like results for `O=C(CCN1CCCC1)Nc1ccc2c(O)c3ccc(NC(=O)CCN4CCCC4)cc3nc2c1` were, in that order, > 25 µM, > 25 µM, > 25 µM and 8100 nM.
The like results for `O=C(CCN1CCCCC1)Nc1ccc2c(O)c3cc(NC(=O)CCN4CCCCC4)ccc3nc2c1` were, in that order, 5.6 µM, 25 µM, 25 µM and 400 nM.
Take `c1cc2cc3ccc(N4CCCC4)cc3nc2cc1N1CCCC1`: the IC50 in the experiment on A2780 is 27 µM; in experiment [1], 8.2 µM; in the experiment with SK-OV-3, 2.6 µM. The same compound showed an EC50 in experiment [2] of 5200 nM.
For `O=C(CCN1CCC(O)CC1)Nc1ccc2c(O)c3cc(NC(=O)CCN4CCC(O)CC4)ccc3nc2c1` the same measures were 3.5 µM, 25 µM, 25 µM and 200 nM.
As to `O=C(CCN1CCCCC1)Nc1ccc2nc3ccc(NC(=O)CCN4CCCCC4)cc3c(O)c2c1`, the IC50 (in the experiment on A2780; in experiment [1]; with SK-OV-3) was > 25 µM each time. This compound also registered an EC50 in experiment [2] of 1900 nM.
For the compound `CN(C)CCC(=O)Nc1ccc2c(O)c3ccc(NC(=O)CCN(C)C)cc3nc2c1`, the IC50 (in the experiment on A2780; in experiment [1]; in the experiment with SK-OV-3) was > 25 µM in each case. The compound further yielded a 50% effective concentration (EC50) in experiment [2] of 4300 nM.
Regarding `CC1CCCCN1CCC(=O)Nc1ccc2nc3ccc(NC(=O)CCN4CCCCC4C)cc3c(O)c2c1` (centres undefined), the IC50 (in the experiment with A2780; in experiment [1]; in the experiment on SK-OV-3) was > 25 µM in each case. Also, the EC50 in experiment [2] worked out at 2300 nM.
For the compound `CCN(CC)CCC(=O)Nc1ccc2c(O)c3cc(NC(=O)CCN(CC)CC)ccc3nc2c1`, the IC50 came out at 16 µM with A2780, 25 µM in experiment [1] and 25 µM in the experiment on SK-OV-3. For the same compound, it took 700 nM to reach a half-maximal effect in experiment [2] (EC50).
In the case of `CN(C)CCC(=O)Nc1ccc2nc3ccc(NC(=O)CCN(C)C)cc3c(O)c2c1`, the IC50 (with A2780; in experiment [1]; in the experiment with SK-OV-3) was > 25 µM each time. This compound displayed an EC50 in experiment [2] of 600 nM.
In the case of `CCN(CC)c1ccc2cc3ccc(N(CC)CC)cc3nc2c1`, the IC50 in the experiment with A2780 was found to be 0.6 µM; in experiment [1], 2.5 µM; in the experiment with SK-OV-3 it was 2.3 µM. Further, the midpoint of the response in experiment [2], the EC50, lay at 5800 nM.
The like results for `O=C(CCN1CCCC1)Nc1ccc2nc3ccc(NC(=O)CCN4CCCC4)cc3c(O)c2c1` were, in that order, > 25 µM, > 25 µM, > 25 µM and 5800 nM.
In the case of `c1cc2cc3ccc(N4CCCCC4)cc3nc2cc1N1CCCCC1`, the IC50 in the experiment on A2780 was found to be 1.7 µM; in experiment [1], 2.3 µM; in the experiment on SK-OV-3 it was 0.5 µM. For the same compound, in experiment [2], a half-maximal effect (EC50) was put at 2800 nM.
Regarding `CCN1CCN(CCC(=O)Nc2ccc3c(O)c4ccc(NC(=O)CCN5CCN(CC)CC5)cc4nc3c2)CC1`, the IC50 with A2780 was 11.8 µM; in experiment [1], 11 µM; in the experiment with SK-OV-3, 10.5 µM. Moreover, the EC50 in experiment [2] amounted to 1900 nM.
With `O=C(CCN1CCCCC1)Nc1ccc2c(O)c3ccc(NC(=O)CCN4CCCCC4)cc3nc2c1`, the values for the IC50 (with A2780; in experiment [1]; in the experiment with SK-OV-3) were 19 µM, 13 µM and 21 µM, respectively. Besides, the EC50 in experiment [2] came to 5900 nM.
The like results for `O=C(CCN1CCOCC1)Nc1ccc2c(O)c3ccc(NC(=O)CCN4CCOCC4)cc3nc2c1` were, in that order, > 25 µM, > 25 µM, > 25 µM and 4900 nM.
For `CC1CCN(CCC(=O)Nc2ccc3c(O)c4cc(NC(=O)CCN5CCC(C)CC5)ccc4nc3c2)CC1` the same measures were > 25 µM, 25 µM, 25 µM and 200 nM.
For `CCN(CC)CCC(=O)Nc1ccc2c(O)c3ccc(NC(=O)CCN(CC)CC)cc3nc2c1`, the IC50 (with A2780; in experiment [1]; with SK-OV-3) was > 25 µM throughout. The response in experiment [2] was half-maximal at 5700 nM (EC50).
Turning to `O=C(CCN1CCC(O)CC1)Nc1ccc2nc3ccc(NC(=O)CCN4CCC(O)CC4)cc3c(O)c2c1`, the concentration for half-maximal inhibition (IC50) (in the experiment on A2780; in experiment [1]; in the experiment on SK-OV-3) was > 25 µM in each case. The compound also had an EC50 in experiment [2] of 2300 nM.
Take `O=C(CCN1CCC(O)CC1)Nc1ccc2c(O)c3ccc(NC(=O)CCN4CCC(O)CC4)cc3nc2c1`: the IC50 (in the experiment on A2780; in experiment [1]; with SK-OV-3) was > 25 µM in each case. The midpoint of the response in experiment [2], the EC50, lay at 1700 nM.
As for `CN1CCN(CCC(=O)Nc2ccc3nc4ccc(NC(=O)CCN5CCN(C)CC5)cc4c(O)c3c2)CC1`, the IC50 (in the experiment on A2780; in experiment [1]; in the experiment with SK-OV-3) was > 25 µM each time. In experiment [2], this compound came in with an EC50 of 1900 nM.
Turning to `CC[n+]1c(-c2ccccc2)c2cc(N)ccc2c2ccc(N)cc21` [HOMIDIUM BROMIDE], the IC50 was 0.1 µM with A2780, 0.4 µM in experiment [1] and 4.5 µM with SK-OV-3.
